Molecules are shown by their SMILES.

The IC50 is the point on the concentration scale where inhibition reaches its midpoint.

This test has as its system S. cerevisiae tim23-1 mutant growth, luminescence. Kind of test: growth inhibition of tim23-1 mutant yeast, dose response, counter-screen for tim10-1 yeast inhibitor project, luminescence, uHTS hits (AID 504544). For orientation: The purpose of a counterscreen is to sort out artefacts and off-target activity.

Turning to `c1ccc(Nc2cccc(Nc3ccccc3)n2)cc1`, the IC50 was 9.11 µM.

Values taken from PubChem BioAssay AID504544 (Sanford-Burnham Center for Chemical Genomics, 2011).
